Measurements published in BindingDB's records for doi:10.1016/s0960-894x(02)00137-3 (Kingston University, 2002).

Each molecule was assayed against T1, Steryl-sulfatase (Homo sapiens, UniProt P08842) (assay: ChEBML_68022).
T1 sequence (P08842 whole entry): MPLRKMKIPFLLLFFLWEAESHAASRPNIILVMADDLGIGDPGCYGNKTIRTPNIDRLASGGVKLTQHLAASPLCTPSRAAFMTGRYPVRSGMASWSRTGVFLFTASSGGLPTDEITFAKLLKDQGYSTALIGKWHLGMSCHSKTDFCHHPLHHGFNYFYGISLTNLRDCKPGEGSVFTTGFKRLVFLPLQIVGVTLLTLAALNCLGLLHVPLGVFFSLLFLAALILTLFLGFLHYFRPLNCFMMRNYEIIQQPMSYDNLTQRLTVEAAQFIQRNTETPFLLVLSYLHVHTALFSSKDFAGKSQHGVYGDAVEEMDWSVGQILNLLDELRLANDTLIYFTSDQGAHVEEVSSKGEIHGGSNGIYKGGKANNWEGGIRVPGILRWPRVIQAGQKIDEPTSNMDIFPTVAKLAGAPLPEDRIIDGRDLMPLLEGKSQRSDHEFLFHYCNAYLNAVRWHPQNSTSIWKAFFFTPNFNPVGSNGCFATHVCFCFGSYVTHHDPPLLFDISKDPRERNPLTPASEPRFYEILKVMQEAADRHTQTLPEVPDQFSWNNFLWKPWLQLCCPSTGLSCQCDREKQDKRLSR
Source text: In vitro inhibition of estrone sulfatase.

SMILES	IC50 [µM]
NS(=O)(=O)Oc1ccccc1	> 10000
NS(=O)(=O)Oc1ccc(F)cc1 [4-fluorophenyl sulfamate]	537
NS(=O)(=O)OCC(Cl)(Cl)Cl [Sulfamic acid 2,2,2-trichloro-ethyl ester]	750
NS(=O)(=O)Oc1cccc(I)c1 [Sulfamic acid 3-iodo-phenyl ester]	120
Cc1cccc(OS(N)(=O)=O)c1 [Sulfamic acid m-tolyl ester]	2090

Other lines, results leading:

IC50 [µM]	SMILES
560	NS(=O)(=O)Oc1ccc(I)cc1 [Sulfamic acid 4-iodo-phenyl ester]
> 10000	Cc1ccc(OS(N)(=O)=O)cc1 [Sulfamic acid p-tolyl ester]
